Values quoted from earlier work in US7700798B1, “Erogorgiaene congeners and methods and intermediates useful in the preparation of same” (The Research Foundation of State University of New York, priority 2005, dated 2010).

Details: literature statement, comparison with the commercially used natural products

Elisabethadione
anti-inflammatory potency compared with the pseudopterosins: more potent than the related and commercially used natural products, the pseudopterosins
